Test results published in US20240024520A1, “AUTONOMOUS KNOB DOMAIN PEPTIDES” (UCB BIOPHARMA SRL, priority 2020, published 2024).
Like-named read-outs stand apart in the source and are kept apart here. Bridge positions count the residues as written; N and C are the ends. Ends that are not written are not given here. Peptide text beside a SMILES is read from it. * marks the point of attachment. Palmitoyl = CCCCCCCCCCCCCCCC(=O)*

Columns and labels:
[1] = tested on: Classical pathway C5b deposition; test: Classical pathway C5b (neo-epitope) deposition ELISA, SVAR kit; format: biochemical, human; conditions: chemFE peptides, Example 10; result in words
Excerpt: (§1) To elucidate the functional consequences of the knob domain peptides binding to human C5, we performed complement activation assays using the SVAR complement activation ELISA which measured CP (Classical Pathway) and AP (Alternative Pathway) activation in human serum, through formation of the C5b neo-epitope. We also developed orthogonal ELISA assays which measured total complement and AP specific mediated C3b and MAC (Membrane Attack Complex) deposition. For all activation conditions, we also tracked C5a release via ELISA.
(§2) For the C5b ELISA, assays were run using the CP and AP Complement functional ELISA kits (SVAR), as per the manufacturer's protocol. For sample preparation: serum was diluted as per the respective protocol for the CP and AP assays. Titrations of peptides were prepared and allowed to incubate for 15 minutes at room temperature, prior to plating.
(§3) Functional activity of chemically derived knob domain peptides was confirmed in a complement activation ELISAs which measured inhibition of C5b neoepitope deposition.
(§4) Finally, we tested our constructs in AP and CP complement activation ELISAs, which measured C5b neoepitope deposition.
(§5) Complement ELISA: assays were run using the CP and AP Complement functional ELISA kits (SVAR, COMPL 300 RUO), as per the manufacturer's protocol. For sample preparation, serum was diluted as per the respective protocol for the CP and AP assays; serial dilutions of peptides were prepared and allowed to incubate with serum for 15 minutes at room temperature, prior to plating.

[2] = tested on: Alternative pathway C5b deposition; test: Alternative pathway C5b (neo-epitope) deposition ELISA, SVAR kit; format: biochemical, human; conditions: chemFE peptides, Example 10; result in words
Excerpt: as §1, §2, §3, §4, §5

C5 = C5 (Homo sapiens, UniProt P01031); test: Biacore multi-cycle kinetics on human C5; format: binding; conditions: for mean stoichiometric ratio: measured Rmax divided by theoretical Rmax; for binding to human C5: chemical knob domains and variants, result in words
Method: Binding of knob domain peptides to human C5 was measured by SPR, using a multi-cycle kinetics method as follows:
(§6) Kinetics were measured using a Biacore 8K (GE Healthcare) with a CM5 chip, which was prepared as follows: EDC/NHS was mixed at 1:1 ratio (flow rate, 10 μL/min; contact time, 30 seconds), human C5 protein at 1 μg/mL in pH 4.5 sodium-acetate buffer, were injected over flow cell one only (flow rate, 10 μL/min; contact time, 60 seconds). Final immobilization levels in the range of 2000-3000 response units (RU) were obtained, to yield theoretical Rmax values of ˜50-60 RU. Serial dilutions of peptide were prepared in HBS-EP buffer and injected (flow rate, 30 μL/min; contact time, 240 seconds; dissociation time, 6000 seconds). After each injection, the surface was regenerated with two sequential injections of 2M MgCl2 (flow rate, […]; contact time, 30 seconds). Binding to the reference surface was subtracted, and the data were fitted to a single site binding model, using Biacore evaluation software.

rabbit erythrocytes = test: Alternative pathway haemolysis assay; format: cell-based; conditions: normal human sera; result in words
Method: (§7) Haemolysis assays: For AP, 50 μL of 24% normal human sera (Complement Technology), 50 of 20 mM MgEGTA (Complement Technology), and 48 μL of GVB0 buffer (0.1% gelatin, […], 145 mM NaCl, 0.025% NaN3, pH 7.3, Complement Technology) were aliquoted into a single well of a 96-well tissue culture plate (USA Scientific) then mixed with 2 μL of inhibitors serially diluted in DMSO. Following equilibration for 15 minutes at room temperature, 50 μL of rabbit erythrocytes (Complement Technology), at 2.5×10^7 per well, were added to the plates, which were then incubated at 37° C. for 30 minutes. Plates were centrifuged at 1,000×g for 3 min and 100 μL of supernatant was collected, transferred to another 96-well tissue culture treated plate, and absorbance was measured at 412 nm. For CP, […], 48 μL of GVB++ buffer (0.1% gelatin, 5 mM Veronal, 145 mM NaCl, 0.025% NaN3, pH 7.3 with 0.15 mM CaCl2 and 0.5 mM MgCl2, Complement Technology) and 2 μL of inhibitors serially diluted in DMSO were aliquoted into a single well and equilibrated as described. Next, 100 μL of antibody-sensitized sheep red blood cells (Complement Technology) at 5×10^7 per well were added to the plate, which was then incubated at 37° C. for 1 hour. Samples were subsequently processed as described.

[3] = tested on: antibody-sensitized sheep red blood cells; test: Classical pathway haemolysis assay; format: cell-based; conditions: normal human sera; result in words
Method: as §7

rat C5 protein = rat C5 protein (Rattus norvegicus, UniProt P08650); test: Biacore kinetics on rat C5 (cross-reactivity); format: binding; conditions: SPR
Method: as §6, with “rat” for “human”, “ug/mL” for “μg/mL”

[4] = In vivo pharmacokinetics after intravenous bolus; conditions: rat, plasma; 1 mg/kg intravenous; male Sprague-Dawley rats; read-out: plasma clearance [C1p]
Method: Plasma pharmacokinetics was studied for each peptide in male Sprague-Dawley rats of a body weight between 324 and 425 g. Drug was administered intravenously via the tail vein. […] Blood samples were taken at 7 minutes, 15 minutes, 30 minutes, followed by 1, 2, 4, 8 and 24 hours. Blood was collected into Li Heparin tubes and spun to prepare plasma samples for bioanalysis. Bioanalytical data was analysed on an individual animal basis using Pharsight Phoenix 64 Build 8.1. Non-compartmental analysis was conducted and mean pharmacokinetic parameters for each drug calculated.

[5] = relative to unmodified peptide
[6] = read-out: mean Koff, multi-cycle kinetics, n = 3 experiments
[7] = read-out: mean Kon, multi-cycle kinetics, n = 3 experiments

C5, sequence (P01031 19-1676): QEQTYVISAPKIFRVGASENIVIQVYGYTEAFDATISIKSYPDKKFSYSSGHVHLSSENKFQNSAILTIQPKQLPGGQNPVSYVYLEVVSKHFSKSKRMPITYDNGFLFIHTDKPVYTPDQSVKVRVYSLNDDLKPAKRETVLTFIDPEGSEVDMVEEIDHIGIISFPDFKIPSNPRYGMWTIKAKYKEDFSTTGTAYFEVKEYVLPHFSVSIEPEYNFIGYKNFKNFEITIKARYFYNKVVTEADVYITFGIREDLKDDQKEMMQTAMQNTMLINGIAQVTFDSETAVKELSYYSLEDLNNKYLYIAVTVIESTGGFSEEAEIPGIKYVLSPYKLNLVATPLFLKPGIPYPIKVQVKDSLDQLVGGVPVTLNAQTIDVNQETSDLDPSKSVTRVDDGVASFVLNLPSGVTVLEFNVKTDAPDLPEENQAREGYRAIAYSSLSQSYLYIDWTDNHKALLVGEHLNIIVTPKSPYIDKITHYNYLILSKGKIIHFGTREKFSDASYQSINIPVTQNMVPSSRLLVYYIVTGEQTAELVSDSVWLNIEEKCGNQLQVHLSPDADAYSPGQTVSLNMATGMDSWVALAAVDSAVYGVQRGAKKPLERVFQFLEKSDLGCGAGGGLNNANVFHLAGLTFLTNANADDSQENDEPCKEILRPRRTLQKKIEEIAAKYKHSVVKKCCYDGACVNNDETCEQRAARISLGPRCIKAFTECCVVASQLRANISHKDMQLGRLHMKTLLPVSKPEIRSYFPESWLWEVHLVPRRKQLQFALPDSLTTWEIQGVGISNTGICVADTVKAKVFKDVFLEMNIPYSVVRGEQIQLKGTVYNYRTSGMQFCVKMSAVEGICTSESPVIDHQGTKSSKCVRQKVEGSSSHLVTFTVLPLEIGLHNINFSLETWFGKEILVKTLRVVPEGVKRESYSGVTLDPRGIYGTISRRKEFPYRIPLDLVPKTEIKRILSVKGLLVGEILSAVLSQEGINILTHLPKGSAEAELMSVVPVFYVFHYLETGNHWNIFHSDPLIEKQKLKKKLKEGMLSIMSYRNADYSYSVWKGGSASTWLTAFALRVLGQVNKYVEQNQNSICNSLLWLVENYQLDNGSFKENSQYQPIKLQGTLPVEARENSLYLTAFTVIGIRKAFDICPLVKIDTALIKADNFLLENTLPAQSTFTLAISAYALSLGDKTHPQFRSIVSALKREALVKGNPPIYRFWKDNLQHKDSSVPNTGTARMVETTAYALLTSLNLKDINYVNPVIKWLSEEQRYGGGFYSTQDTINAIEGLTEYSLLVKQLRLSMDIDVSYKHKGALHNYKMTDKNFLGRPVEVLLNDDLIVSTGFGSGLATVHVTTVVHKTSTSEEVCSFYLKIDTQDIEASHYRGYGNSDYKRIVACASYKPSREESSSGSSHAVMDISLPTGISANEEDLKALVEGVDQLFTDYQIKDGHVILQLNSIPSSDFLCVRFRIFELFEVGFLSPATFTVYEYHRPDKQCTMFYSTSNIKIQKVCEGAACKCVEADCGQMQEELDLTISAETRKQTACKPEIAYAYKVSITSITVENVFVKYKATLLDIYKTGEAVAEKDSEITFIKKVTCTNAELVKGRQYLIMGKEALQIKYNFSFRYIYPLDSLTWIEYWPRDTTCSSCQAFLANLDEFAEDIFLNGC
rat C5 protein, sequence (P08650 19-1681): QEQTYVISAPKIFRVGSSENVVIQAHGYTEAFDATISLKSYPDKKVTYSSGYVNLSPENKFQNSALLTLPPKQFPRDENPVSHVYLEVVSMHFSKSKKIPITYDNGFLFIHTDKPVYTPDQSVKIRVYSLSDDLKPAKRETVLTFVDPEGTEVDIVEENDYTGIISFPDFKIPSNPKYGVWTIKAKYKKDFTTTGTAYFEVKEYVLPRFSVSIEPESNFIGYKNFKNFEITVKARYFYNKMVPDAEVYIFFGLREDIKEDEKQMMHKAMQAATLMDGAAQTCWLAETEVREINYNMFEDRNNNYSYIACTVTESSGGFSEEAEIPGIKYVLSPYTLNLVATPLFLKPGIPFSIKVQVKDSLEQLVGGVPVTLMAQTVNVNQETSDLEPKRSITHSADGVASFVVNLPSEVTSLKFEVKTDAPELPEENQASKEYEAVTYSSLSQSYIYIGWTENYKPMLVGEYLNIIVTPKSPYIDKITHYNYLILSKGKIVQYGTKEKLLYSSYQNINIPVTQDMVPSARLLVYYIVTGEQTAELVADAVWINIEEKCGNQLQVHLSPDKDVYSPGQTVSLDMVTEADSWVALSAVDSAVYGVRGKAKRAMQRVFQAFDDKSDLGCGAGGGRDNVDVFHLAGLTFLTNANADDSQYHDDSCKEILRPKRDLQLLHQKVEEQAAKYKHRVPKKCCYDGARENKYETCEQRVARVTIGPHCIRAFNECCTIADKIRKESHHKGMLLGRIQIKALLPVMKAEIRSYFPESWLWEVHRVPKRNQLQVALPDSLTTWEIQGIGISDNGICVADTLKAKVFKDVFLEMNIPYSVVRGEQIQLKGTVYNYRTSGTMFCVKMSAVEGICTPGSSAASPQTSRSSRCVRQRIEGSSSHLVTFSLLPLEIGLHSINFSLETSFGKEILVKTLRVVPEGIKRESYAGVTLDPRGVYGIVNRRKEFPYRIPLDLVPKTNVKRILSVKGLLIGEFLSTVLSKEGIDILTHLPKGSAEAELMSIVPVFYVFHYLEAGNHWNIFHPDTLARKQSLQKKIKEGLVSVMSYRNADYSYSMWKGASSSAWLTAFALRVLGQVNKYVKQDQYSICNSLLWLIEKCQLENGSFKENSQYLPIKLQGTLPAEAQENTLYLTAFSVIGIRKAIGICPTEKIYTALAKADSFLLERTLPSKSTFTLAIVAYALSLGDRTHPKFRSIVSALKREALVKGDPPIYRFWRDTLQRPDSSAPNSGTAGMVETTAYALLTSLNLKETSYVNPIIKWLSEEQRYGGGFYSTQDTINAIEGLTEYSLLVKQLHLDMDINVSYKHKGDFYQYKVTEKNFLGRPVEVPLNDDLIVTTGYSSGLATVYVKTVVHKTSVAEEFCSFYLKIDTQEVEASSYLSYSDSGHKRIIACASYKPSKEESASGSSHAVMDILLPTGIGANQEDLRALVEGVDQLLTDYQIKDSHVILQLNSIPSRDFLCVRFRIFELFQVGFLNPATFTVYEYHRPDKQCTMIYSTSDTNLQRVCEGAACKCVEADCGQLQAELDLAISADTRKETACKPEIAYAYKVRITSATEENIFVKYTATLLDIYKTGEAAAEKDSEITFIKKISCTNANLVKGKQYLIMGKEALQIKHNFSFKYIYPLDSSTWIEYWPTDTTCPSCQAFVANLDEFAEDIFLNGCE

Row | Compound | inhibition of CP, C5b deposition [1] | inhibition of AP, C5b deposition [2] | mean stoichiometric ratio (C5; n = 3 experiments) | inhibition of haemolysis, AP (rabbit erythrocytes) | binding to human C5 (C5) | koff (C5; [6]) | kon (C5; [7]) | inhibition of haemolysis, CP [3] | cross reactivity with rat C5 protein (rat C5 protein) | other results
1 | CC[C@H](C)[C@@H]1NC(=O)[C@H](C)NC(=O)[C@H](C(C)C)NC(=O)CNC(=O)[C@@H]2CSSC[C@@H](C(=O)NCC(=O)N[C@@H](Cc3c[nH]cn3)C(=O)N[C@@H](Cc3ccccc3)C(=O)N[C@@H](CC(C)C)C(=O)N[C@@H](CC(N)=O)C(=O)N[C@@H](CO)C(=O)NCC(=O)N3CCC[C@H]3C(=O)N[C@@H](CC(N)=O)C(=O)N[C@H](C(=O)N[C@@H](CO)C(=O)N3CCC[C@H]3C(=O)N[C@@H](Cc3ccc(O)cc3)C(=O)N[C@H](C(=O)N[C@@H](CO)C(=O)N[C@H](C(=O)O)[C@@H](C)O)C(C)C)[C@@H](C)CC)NC(=O)CNC(=O)[C@H](Cc3c[nH]c4ccccc34)NC(=O)[C@H](CCCNC(=N)N)NC(=O)CNC(=O)[C@H](CSSC[C@H](NC(=O)[C@@H](N)[C@@H](C)O)C(=O)N3CCC[C@H]3C(=O)N[C@@H](CCC(=O)O)C(=O)NCC(=O)N[C@@H](Cc3c[nH]c4ccccc34)C(=O)N[C@@H](CO)C(=O)N[C@@H](CCC(=O)O)C(=O)N2)NC(=O)[C@H](CCC(=O)O)NC(=O)[C@H](Cc2ccc(O)cc2)NC(=O)CNC(=O)[C@H](Cc2ccc(O)cc2)NC1=O [K92chemFE] (H-TCPEGWSECGVAIYGYECGRWGCGHFLNSGPNISPYVST-OH; disulfide 2-18, 9-23) | modest, dose dependent enhancement | partially inhibited | 0.40 | active solely in the AP-driven haemolysis assay |  |  |  |  |  | koff (C5; multi-cycle kinetics, n = 3 experiments, read-out: mean Koff): 0.000101 s⁻¹; kon (C5; multi-cycle kinetics, n = 3 experiments, read-out: mean Kon): 283000 M⁻¹ s⁻¹
2 | CSCC[C@@H]1NC(=O)[C@@H]2CCCN2C(=O)[C@@H](NC(=O)[C@@H]2CSSC[C@H](NC(=O)[C@@H](N)CO)C(=O)N3CCC[C@H]3C(=O)N[C@@H](CC(=O)O)C(=O)NCC(=O)N[C@@H](Cc3ccccc3)C(=O)N[C@@H](CO)C(=O)N[C@@H](Cc3ccc(O)cc3)C(=O)N[C@@H](CCCNC(=N)N)C(=O)N[C@@H](CO)C(=O)N[C@@H](Cc3c[nH]c4ccccc34)C(=O)N[C@@H](CC(=O)O)C(=O)N[C@@H](CC(=O)O)C(=O)N[C@@H](Cc3ccccc3)C(=O)N2)CSSC[C@@H](C(=O)N[C@@H](CC(C)C)C(=O)N[C@@H](C)C(=O)N2CCC[C@H]2C(=O)N[C@@H](CCCNC(=N)N)C(=O)N[C@@H](CC(N)=O)C(=O)O)NC(=O)[C@H](CCCNC(=N)N)NC(=O)CNC(=O)[C@H](C(C)C)NC1=O [K149chemFE] (H-SCPDGFSYRSWDDFCCPMVGRCLAPRN-OH; disulfide 2-15, 16-22 (inferred); N-terminus assumed) | non-functional, silent binder | non-functional, silent binder | 0.85 |  | equal affinity |  |  |  |  | binding to C5 (C5; after reduction and capping of cysteines with iodoacetamide (loss of disulphide bonds)): entirely abrogated binding; Kd (C5; multi-cycle kinetics, n = 3 experiments, read-out: mean KD): 5.57 nM
3 | GCPPGYKSGVDCSPGSECKWGCYAVDGRRYGGYGADSGVGS-OH (disulfide 2-18, 12-22) [K57chemFE] | potent and fully efficacious inhibitor | potent and fully efficacious inhibitor | 0.65 | potent and fully efficacious inhibitor |  | 0.000579 s⁻¹ | 260000 M⁻¹ s⁻¹ | potent and fully efficacious inhibitor | specific for human C5 | 
4 | K8 chemFE cyclic: cyclic peptide from head-to-tail cyclisation of the K8chemFE knob domain (cyclo(VCPDGFNWGYGCAAGSSRFCTRHDWCCYDERADSHTYGFCTGNRV); also: disulphides formed by free energy method, pairing not given here) |  |  |  | functionally active complement inhibitor | bound human C5 |  |  | functionally active complement inhibitor |  | 
5 | Palmitoyl-GCPPGYKSGVDCSPGSECKWGCYAVDGRRYGGYGADSGVGS-OH (disulfide 2-18, 12-22) [K57 chemFE-Palmitoyl] |  |  |  |  | unaffected |  |  |  |  | clearance [4]: 0.8 mL/min/kg; solubility [5]: reduced solubility
6 | VCPDGFNWGYGCAAGSSRFCTRHDWCCYDERADSHTYGFCTGNRV-OH (disulfide 2-26, 12-40, 20-27) [K8chemFE] | partial inhibitor | partial inhibitor | 0.25 |  |  | 0.000385 s⁻¹ | 70500 M⁻¹ s⁻¹ |  | tightly bound | cross reactivity with rat C5 protein (rat C5 protein; listed as K8chem): cross reactive
